According to PubChem BioAssay (NCI):
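Five concentrations, 48 hours, 96-well plates. Definition used: TGI = concentration required for complete inhibition of growth.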 Where a SMILES comes first, the peptide text is derived from it. [ ]: non-standard residue; d: D form. The star is where a group is joined. X28 = COC1=CC(=O)N(C(=O)[C@@H](O*)C(C)C)[C@H]1Cc1ccccc1; NMeV = CN[C@H](C(=O)O)C(C)C; Hexanoyl = CCCCCC(=O)*

Key:
Assay in all cases: NCI anticancer screen, dose series, 48 h
[1] = test system: A549 NSCLC
[2] = test system: HCT-116 colon
[3] = test system: HOP-62 NSCLC
[4] = test system: HOP-92 NSCLC
[5] = test system: KM12 colon
[6] = test system: M14 melanoma
[7] = test system: MALME-3M melanoma
[8] = test system: MCF7 breast
[9] = test system: MDA-MB-435
[10] = test system: MDA-N
[11] = test system: MOLT-4 leukemia
[12] = test system: NCI-H522 lung
[13] = test system: NCI/ADR-RES ovarian
[14] = test system: OVCAR-4 ovarian
[15] = test system: OVCAR-8 ovarian
[16] = test system: SK-MEL-28 melanoma
[17] = test system: SK-MEL-5 melanoma
[18] = test system: SK-OV-3 ovarian
[19] = test system: SN12C renal
[20] = test system: NCI-H460 lung

SMILES	TGI [1]	TGI [2]	TGI [3]	TGI [4]	TGI [5]	TGI [6]	TGI [7]	TGI [8]	TGI [9]	TGI [10]	TGI [11]	TGI [12]	TGI [13]	TGI [14]	TGI [15]	TGI [16]	TGI [17]	TGI [18]	TGI [19]	TGI [20]
CCN(CC)CCCNc1nc(=O)[nH]c(C)c1C(=O)Nc1cccc2cc3ccccc3cc12	> 100 µM	> 100 µM	> 100 µM	> 100 µM	> 100 µM	> 100 µM	> 100 µM	> 100 µM	> 100 µM	> 100 µM	> 100 µM	> 100 µM	> 100 µM	> 100 µM	> 100 µM	> 100 µM	> 100 µM	> 100 µM	> 100 µM	–
O=C(/C=C/c1csc(-c2ccccc2)n1)NCc1ccc(C(=O)NCCc2ccccc2)cc1	> 100 µM	> 100 µM	6.86 µM	36.8 µM	> 100 µM	> 100 µM	> 100 µM	> 100 µM	> 100 µM	> 100 µM	> 100 µM	> 100 µM	> 100 µM	> 100 µM	63 µM	> 100 µM	> 100 µM	56.2 µM	> 100 µM	> 100 µM
O=C(/C=C/c1ccccc1)CCN1CCN(CCC(=O)/C=C/c2ccccc2)CC1	> 100 µM	5.28 µM	43.9 µM	35.9 µM	17 µM	23.9 µM	30.9 µM	20.7 µM	14.8 µM	6.79 µM	85.5 µM	30 µM	60.7 µM	39.3 µM	31.4 µM	27.8 µM	28.7 µM	> 100 µM	21.7 µM	31 µM
O=Nc1c(O)cc(Nc2ccc(Br)cc2)c2ccccc12	6.04 µM	> 59.2 µM	19.1 µM	45.2 µM	23.1 µM	3.03 µM	–	17.8 µM	3.37 µM	3.41 µM	42 µM	> 100 µM	33.1 µM	> 100 µM	37.2 µM	4.2 µM	3.15 µM	30.8 µM	> 63.6 µM	11 µM
CCN(CC)CCC(=O)c1ccc(Oc2ccc(Cl)cc2)cc1	> 100 µM	32 µM	24.1 µM	32.8 µM	32.2 µM	28.3 µM	34.8 µM	55.9 µM	34.2 µM	29.6 µM	42.2 µM	38 µM	56.7 µM	36.1 µM	44.9 µM	32.6 µM	31.2 µM	–	31.2 µM	29.2 µM
CCOC(CN=C=S)OCC	> 10 µM	> 10 µM	> 10 µM	> 10 µM	> 10 µM	> 10 µM	> 10 µM	> 10 µM	> 10 µM	> 10 µM	> 10 µM	> 10 µM	> 10 µM	> 10 µM	> 10 µM	> 10 µM	> 10 µM	> 10 µM	> 10 µM	> 10 µM
CCOC(=O)C1=[N+]([O-])OC2=C(O)CCCC21 (configuration not stated)	> 100 µM	> 100 µM	> 100 µM	> 100 µM	> 100 µM	> 100 µM	> 100 µM	> 100 µM	> 100 µM	> 100 µM	> 100 µM	> 100 µM	> 100 µM	> 100 µM	> 100 µM	> 100 µM	> 100 µM	> 100 µM	> 100 µM	> 100 µM
CCCCCCCCCCCC(=O)Oc1c(Cl)cc(Cl)c(OC(=O)C(=O)Oc2c(Cl)cc(Cl)c(OC(=O)CCCCCCCCCCC)c2Cl)c1Cl	> 100 µM	> 100 µM	> 100 µM	> 100 µM	> 100 µM	–	> 100 µM	> 100 µM	> 100 µM	> 100 µM	> 100 µM	> 100 µM	> 100 µM	> 100 µM	> 100 µM	> 100 µM	> 100 µM	> 100 µM	> 100 µM	> 100 µM
C=CCOc1ccc(/C(N=Nc2ccc([N+](=O)[O-])cc2)=N/NC(=O)c2ccccc2)cc1OC	> 100 µM	> 100 µM	> 100 µM	> 100 µM	> 100 µM	> 100 µM	> 100 µM	> 100 µM	> 100 µM	> 100 µM	> 100 µM	> 100 µM	> 100 µM	> 100 µM	> 100 µM	> 100 µM	> 100 µM	–	> 100 µM	> 100 µM
NC(=O)N/N=C1\CCCCc2ccccc21	> 10 µM	> 10 µM	> 10 µM	> 10 µM	> 10 µM	> 10 µM	> 10 µM	> 10 µM	> 10 µM	> 10 µM	> 10 µM	> 10 µM	> 10 µM	> 10 µM	> 10 µM	–	–	–	> 10 µM	> 10 µM
CCCCCC(=O)N[C@H](C(=O)N[C@H](C(=O)N(C)[C@H](C(=O)N1CCC[C@H]1C(=O)N1CCC[C@H]1C(=O)O[C@H](C(=O)N1C(=O)C=C(OC)[C@@H]1Cc1ccccc1)C(C)C)C(C)C)C(C)C)C(C)C (Hexanoyl-VV[NMeV]PP-X28)	–	> 100 µM	> 100 µM	> 100 µM	> 100 µM	–	> 100 µM	> 100 µM	> 100 µM	> 100 µM	> 100 µM	> 100 µM	> 100 µM	> 100 µM	> 100 µM	> 100 µM	–	> 100 µM	> 100 µM	> 100 µM
COc1ccc(/C=C2\NC(=S)N(CN3CCCCC3)C2=O)cc1	> 100 µM	> 100 µM	> 100 µM	> 100 µM	> 100 µM	> 100 µM	> 100 µM	61.1 µM	> 100 µM	> 100 µM	> 100 µM	> 100 µM	> 100 µM	78.8 µM	50 µM	> 100 µM	> 100 µM	> 100 µM	> 100 µM	–
Cc1nc2cccc(F)c2c(=O)n1C1CCCCNC1=O (configuration not stated)	> 10 µM	> 10 µM	> 10 µM	> 10 µM	> 10 µM	> 10 µM	–	> 10 µM	> 10 µM	> 10 µM	> 10 µM	> 10 µM	> 10 µM	> 10 µM	> 10 µM	> 10 µM	> 10 µM	> 10 µM	> 10 µM	> 10 µM
CC(=O)OCOC(=O)CN(CC(=O)OCOC(C)=O)Cc1cc2c(cc1OC(C)=O)Oc1cc(OC(C)=O)c(CN(CC(=O)OCOC(C)=O)CC(=O)OCOC(C)=O)cc1C21OC(=O)c2ccccc21	4.82 µM	1.5 µM	3.48 µM	3.06 µM	–	3.68 µM	1.88 µM	7.73 µM	2.02 µM	1.32 µM	0.843 µM	1.17 µM	75 µM	3.42 µM	3.23 µM	1.76 µM	2.12 µM	9.4 µM	2.83 µM	1.45 µM
CC(=O)N1C(Nc2ccccn2)CCN1c1ccccc1 (configuration not stated)	> 10 µM	> 10 µM	> 10 µM	> 10 µM	–	> 10 µM	> 10 µM	> 10 µM	> 10 µM	> 10 µM	> 10 µM	> 10 µM	> 10 µM	> 10 µM	> 10 µM	> 10 µM	> 10 µM	> 10 µM	> 10 µM	> 10 µM
CCC1NC(=O)C1NC(=O)OC (configuration not stated)	–	> 100 µM	> 100 µM	> 100 µM	> 100 µM	> 100 µM	> 100 µM	> 100 µM	> 100 µM	> 100 µM	> 100 µM	> 100 µM	> 100 µM	> 100 µM	> 100 µM	> 100 µM	> 100 µM	> 100 µM	> 100 µM	> 100 µM
CCCC1(NC(=O)C(F)(F)F)CC(OC)OC2COC(c3ccccc3)OC21 (configuration not stated)	> 100 µM	> 100 µM	> 100 µM	> 100 µM	–	> 100 µM	> 100 µM	> 100 µM	> 100 µM	> 100 µM	> 100 µM	> 100 µM	> 100 µM	> 100 µM	> 100 µM	> 100 µM	45.2 µM	> 100 µM	> 100 µM	> 100 µM
O=[N+]([O-])c1ccc(-c2csc3nc(-c4ccccc4)nn23)cc1	> 100 µM	> 100 µM	> 100 µM	> 100 µM	> 100 µM	> 100 µM	> 100 µM	> 100 µM	> 100 µM	> 100 µM	> 100 µM	> 100 µM	> 100 µM	> 100 µM	> 100 µM	> 100 µM	> 100 µM	> 100 µM	> 100 µM	–
COCCN(C(C)=O)C1CCC2(SCCS2)c2[nH]c3ccccc3c21 (configuration not stated)	> 100 µM	> 100 µM	> 100 µM	> 100 µM	> 100 µM	–	> 100 µM	> 100 µM	> 100 µM	> 100 µM	> 100 µM	> 100 µM	> 100 µM	–	> 100 µM	> 100 µM	> 100 µM	–	> 100 µM	> 100 µM
O=[N+]([O-])C(C(Cl)=C(Cl)Cl)=C(N(Cc1ccccc1)Cc1ccccc1)N(Cc1ccccc1)Cc1ccccc1	> 100 µM	> 100 µM	> 100 µM	57.1 µM	> 100 µM	> 100 µM	> 100 µM	> 100 µM	79.8 µM	> 100 µM	> 100 µM	> 100 µM	> 100 µM	–	> 100 µM	> 100 µM	> 100 µM	> 100 µM	> 100 µM	> 100 µM
CC(C)(Br)C(Br)CCC(C)(Br)C(Br)CO (configuration not stated)	> 10 µM	> 10 µM	> 10 µM	> 10 µM	–	> 10 µM	> 10 µM	> 10 µM	> 10 µM	> 10 µM	> 10 µM	> 10 µM	> 10 µM	> 10 µM	> 10 µM	> 10 µM	> 10 µM	> 10 µM	> 10 µM	–
C/C(=N/NC(=S)Nc1ccc([N+](=O)[O-])cc1)c1cccc(/C(C)=N\NC(=S)Nc2ccc([N+](=O)[O-])cc2)n1	11.4 µM	12.2 µM	11.1 µM	11.6 µM	> 35.7 µM	2.7 µM	9.13 µM	3.86 µM	> 38.7 µM	15.1 µM	–	21.2 µM	> 29.9 µM	49.4 µM	–	> 100 µM	7.29 µM	10.7 µM	14.4 µM	9.11 µM
C=CCOc1ccc(/C(N=Nc2ccc(Cl)cc2)=N/NC(=O)c2ccccc2)cc1OC	> 100 µM	> 100 µM	> 100 µM	91.6 µM	> 100 µM	> 100 µM	> 100 µM	> 100 µM	> 100 µM	> 100 µM	> 100 µM	> 100 µM	> 100 µM	> 100 µM	> 100 µM	> 100 µM	> 100 µM	–	> 100 µM	> 100 µM
CCOC(=O)N/N=C(/OCC)c1ccccc1	> 100 µM	> 100 µM	> 100 µM	> 100 µM	> 100 µM	–	> 100 µM	> 100 µM	> 100 µM	> 100 µM	> 100 µM	> 100 µM	> 100 µM	> 100 µM	> 100 µM	> 100 µM	> 100 µM	> 100 µM	> 100 µM	> 100 µM
